Article PMC6032053, “Design, Synthesis, Cytotoxic Evaluation and Molecular Docking of New Fluoroquinazolinones as Potent Anticancer Agents with Dual EGFR Kinase and Tubulin Polymerization Inhibitory Effects” (International Journal of Molecular Sciences, 2018)
Entries after “also recorded” stand apart in the source; their conditions may differ. Values belong to the molecule of their own block, whether it stands above or below them.

Key:
MCF-7 = assay: In vitro cytotoxic screening (MTT assay), MCF-7; format: cell-based, human; settings: for IC50: Homo sapiens, MCF7, MTT assay, 24 h, MCF-7 cell line; for IC50 / Selectivity index S2: mean ± SD; for Cell line selectivity: S1 > S2: more selective to MDA-MBA-231, S2 > S1: more selective to MCF-7; for Selectivity index S2: S2 = IC50 (MDA-MBA-231)/IC50 (MCF-7)
Method: (§1) Cell lines were obtained from American Type Culture Collection, cells were cultured using DMEM (Invitrogen Life Technologies, Waltham, MA, USA) supplemented with 10% FBS (Hyclone, Logan, UT, USA), 10 µg/mL of insulin (Sigma, St. Louis, MO, USA), and 1% penicillin-streptomycin. […] At the end of the incubation, the cells were harvested and washed with PBS. 20 µL of MTT was added to each well and incubated for 2 h before 200 µL DMSO was added. The absorbance was measured on an ELISA reader (Multiskan EX, Lab systems, Waltham, MA, USA) at wavelength of 570 nm.
(§2) All assays were performed in triplicate. The results were expressed as mean ± SD (standard deviation) using Student’s t test.

MDA-MBA-231 = assay: In vitro cytotoxic screening (MTT assay), MDA-MBA-231; format: cell-based, human; settings: mean ± SD; for IC50: 24 h, MTT assay, MDA-MBA-231 cell line; for Selectivity index S1: S1 = IC50 (MCF-7)/IC50 (MDA-MBA-231)
Method: as §1, §2

EGFR-TK = EGFR-TK (Homo sapiens, UniProt P00533); assay: EGFR inhibition assay (HT Scan EGFR kinase assay kit)
EGFR-TK, sequence (P00533 25-1210): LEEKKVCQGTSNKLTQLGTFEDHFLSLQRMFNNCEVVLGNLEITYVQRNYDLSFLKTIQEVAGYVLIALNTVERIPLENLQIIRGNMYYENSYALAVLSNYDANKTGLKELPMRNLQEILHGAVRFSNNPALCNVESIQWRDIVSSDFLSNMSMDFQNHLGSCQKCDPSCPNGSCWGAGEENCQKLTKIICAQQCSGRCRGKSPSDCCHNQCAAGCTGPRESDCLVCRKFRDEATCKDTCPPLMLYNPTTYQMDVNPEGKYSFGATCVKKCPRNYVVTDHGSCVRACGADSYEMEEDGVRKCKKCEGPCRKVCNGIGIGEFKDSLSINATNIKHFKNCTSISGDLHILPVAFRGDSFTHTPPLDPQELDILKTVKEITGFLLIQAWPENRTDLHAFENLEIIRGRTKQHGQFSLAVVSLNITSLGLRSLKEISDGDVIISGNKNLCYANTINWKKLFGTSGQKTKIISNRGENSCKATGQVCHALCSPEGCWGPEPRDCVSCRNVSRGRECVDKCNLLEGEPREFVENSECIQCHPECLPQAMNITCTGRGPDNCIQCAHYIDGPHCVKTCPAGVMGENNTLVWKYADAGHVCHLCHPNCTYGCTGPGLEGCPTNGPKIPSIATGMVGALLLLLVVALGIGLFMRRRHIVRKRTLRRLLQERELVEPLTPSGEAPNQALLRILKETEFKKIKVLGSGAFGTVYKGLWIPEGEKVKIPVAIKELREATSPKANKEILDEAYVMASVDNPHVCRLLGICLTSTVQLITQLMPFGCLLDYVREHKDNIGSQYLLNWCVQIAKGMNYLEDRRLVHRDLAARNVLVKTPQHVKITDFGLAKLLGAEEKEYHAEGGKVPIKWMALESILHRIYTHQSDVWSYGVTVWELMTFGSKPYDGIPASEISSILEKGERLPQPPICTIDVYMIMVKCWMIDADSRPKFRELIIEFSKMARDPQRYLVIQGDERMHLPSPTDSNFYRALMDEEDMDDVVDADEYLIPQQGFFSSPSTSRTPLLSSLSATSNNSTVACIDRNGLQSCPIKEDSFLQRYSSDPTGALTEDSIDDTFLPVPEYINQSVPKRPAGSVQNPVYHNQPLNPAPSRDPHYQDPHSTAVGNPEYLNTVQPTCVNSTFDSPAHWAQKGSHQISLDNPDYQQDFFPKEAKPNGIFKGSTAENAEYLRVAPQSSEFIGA
Method: EGFR kinase activity was measured by HT Scan EGFR kinase assay kits (Cell Signaling Technology, Danvers, MA, USA). The experiments were performed following the manufacturer’s directions. […] Strapavidin-coated 96-well plates were used to take phosphorylated substrate. Anti-phosphotyrosine and europium-labeled secondary antibodies (DELFIA, Perkin-Elmer, Akron, OH, USA) were used to monitor the level of phosphorylation.

melting point: 228 to 230 °C
SMILES: COc1ccc(C=Nn2c(-c3ccc(F)cc3)nc3ccc(F)cc3c2=O)cc1 [Compound 10c, 3-(4-Methoxybenzylideneamino)-6-fluoro-2-(4-fluorophenyl)quinazolin-4(3H)-one]
IC50 (MCF-7): 10.4 ± 1.14 µM | Cell line selectivity (MCF-7): more selective to MDA-MBA-231 than MCF-7; also recorded: MDA-MBA-231 selective | Selectivity index S2 (MCF-7): 0.10 ± 0.13 | IC50 (MDA-MBA-231; Homo sapiens): 1.09 ± 0.01 µM | Selectivity index S1 (MDA-MBA-231): 9.57 ± 0.11

melting point: 224 to 226 °C
SMILES: O=c1c2cc(F)ccc2nc(-c2ccc(F)cc2)n1N=Cc1ccc(Cl)cc1 [Compound 10f, 3-(4-Chlorobenzylideneamino)-6-fluoro-2-(4-fluorophenyl)quinazolin-4(3H)-one]
IC50 (MCF-7): 0.71 ± 0.01 µM | Cell line selectivity (MCF-7): more selective to MCF-7 than MDA-MBA-231; also recorded: MCF-7 selective | Selectivity index S2 (MCF-7): 5.29 ± 0.31 | IC50 (MDA-MBA-231; Homo sapiens): 3.76 ± 0.22 µM | Selectivity index S1 (MDA-MBA-231): 9.57 ± 0.22

melting point: 218 to 220 °C
SMILES: O=c1c2cc(F)ccc2nc(-c2ccc(F)cc2)n1N=Cc1ccccc1 [Compound 10a, 3-(Benzylideneamino)-6-fluoro-2-(4-fluorophenyl)quinazolin-4(3H)-one]
IC50 (MCF-7): 0.95 ± 0.01 µM | Cell line selectivity (MCF-7): more selective to MCF-7 than MDA-MBA-231; also recorded: MCF-7 selective | Selectivity index S2 (MCF-7): 2.61 ± 0.09 | IC50 (MDA-MBA-231; Homo sapiens): 2.48 ± 0.17 µM | Selectivity index S1 (MDA-MBA-231): 0.39 ± 0.01

melting point: 235 to 237 °C | IC50 (EGFR-TK): 0.17008 ± 2e-05 µM
SMILES: O=c1c2cc(F)ccc2nc(-c2ccc(F)cc2)n1N=Cc1ccc([N+](=O)[O-])cc1 [Compound 10e, 3-(4-Nitrobenzylideneamino)-6-fluoro-2-(4-fluorophenyl)quinazolin-4(3H)-one]
IC50 (MCF-7): 2.61 ± 0.14 µM | Cell line selectivity (MCF-7): more selective to MDA-MBA-231 than MCF-7; also recorded: MDA-MBA-231 selective | Selectivity index S2 (MCF-7): 0.11 ± 0.17 | Selectivity index S1 (MDA-MBA-231): 9.32 ± 0.08

melting point: 229 to 231 °C
SMILES: O=c1c2cc(F)ccc2nc(-c2ccc(F)cc2)n1N=Cc1ccc(O)cc1 [Compound 10g, 3-(4-Hydroxybenzylideneamino)-6-fluoro-2-(4-fluorophenyl) quinazolin-4(3H)-one]
IC50 (MCF-7): 1.32 ± 0.08 µM | Cell line selectivity (MCF-7): more selective to MCF-7 than MDA-MBA-231; also recorded: MCF-7 selective | Selectivity index S2 (MCF-7): 1.92 ± 0.05 | IC50 (MDA-MBA-231; Homo sapiens): 2.54 ± 0.23 µM | Selectivity index S1 (MDA-MBA-231): 0.52 ± 0.07

melting point: 228 to 230 °C
SMILES: O=c1c2cc(F)ccc2nc(-c2ccc(F)cc2)n1N=Cc1ccco1 [Compound 7, 3-((Furan-2-yl)methyleneamino)-6-fluoro-2-(4-fluorophenyl)quinazolin-4(3H)-one]
IC50 (MCF-7): 1.06 ± 0.03 µM | Cell line selectivity (MCF-7): more selective to MDA-MBA-231 than MCF-7; also recorded: MDA-MBA-231 selective | Selectivity index S2 (MCF-7): 0.89 ± 0.18 | IC50 (MDA-MBA-231; Homo sapiens): 0.94 ± 0.07 µM | Selectivity index S1 (MDA-MBA-231): 1.13 ± 0.09

melting point: 232 to 234 °C
SMILES: O=c1c2cc(F)ccc2nc(-c2ccc(F)cc2)n1N=Cc1ccc(F)cc1 [Compound 10d, 3-(4-Fluorobenzylideneamino)-6-fluoro-2-(4-fluorophenyl)quinazolin-4(3H)-one]
IC50 (MCF-7): 0.89 ± 0.02 µM | Cell line selectivity (MCF-7): more selective to MDA-MBA-231 than MCF-7; also recorded: MDA-MBA-231 selective | Selectivity index S2 (MCF-7): 0.43 ± 0.09 | IC50 (MDA-MBA-231; Homo sapiens): 0.382 ± 0.01 µM | IC50 (MDA-MBA-231): 0.38 ± 0.01 µM | Selectivity index S1 (MDA-MBA-231): 2.34 ± 0.05

melting point: 231 to 233 °C
SMILES: Cc1ccc(C=Nn2c(-c3ccc(F)cc3)nc3ccc(F)cc3c2=O)cc1 [Compound 10b, 3-(4-Methylbenzylideneamino)-6-fluoro-2-(4-fluorophenyl)quinazoline-4(3H)-one]
IC50 (MCF-7): 5.07 ± 0.33 µM | Cell line selectivity (MCF-7): more selective to MDA-MBA-231 than MCF-7; also recorded: MDA-MBA-231 selective | Selectivity index S2 (MCF-7): 0.61 ± 0.06 | IC50 (MDA-MBA-231; Homo sapiens): 3.09 ± 0.08 µM | Selectivity index S1 (MDA-MBA-231): 1.64 ± 0.21

melting point: 220 to 222 °C
SMILES: O=c1c2cc(F)ccc2nc(-c2ccc(F)cc2)n1N=CC=Cc1ccccc1 [Compound 8, 3-(3-Phenylallylideneamino)-6-fluoro-2-(4-fluorophenyl)quinazolin-4(3H)-one]
IC50 (MCF-7): 36.6 ± 1.81 µM | Cell line selectivity (MCF-7): more selective to MDA-MBA-231 than MCF-7; also recorded: MDA-MBA-231 selective | Selectivity index S2 (MCF-7): 0.59 ± 0.02 | IC50 (MDA-MBA-231; Homo sapiens): 21.6 ± 1.4 µM | Selectivity index S1 (MDA-MBA-231): 1.69 ± 0.15

melting point: 223 to 225 °C | IC50 (EGFR-TK): 0.0752 ± 8e-05 µM
SMILES: O=C1Nc2ccccc2/C1=N\n1c(-c2ccc(F)cc2)nc2ccc(F)cc2c1=O [Compound 6, 3-(3-Iminoindolin-2-one)-6-fluoro-2-(4-flurophenyl)quinazoline-4(3H)-one]
IC50 (MCF-7): 0.35 ± 0.01 µM | Cell line selectivity (MCF-7): more selective to MCF-7 than MDA-MBA-231; also recorded: MCF-7 selective | Selectivity index S2 (MCF-7): 3.94 ± 0.26 | IC50 (MDA-MBA-231; Homo sapiens): 1.38 ± 0.14 µM | Selectivity index S1 (MDA-MBA-231): 0.25 ± 0.06
